Results published in the NIST ThermoML archive (doi:10.1021/je900437b).

Assay: xn = mol fraction of the nth substance listed
Settings: 101 kPa, Liquid; for speed of sound: Sing-around technique in a fixed-path interferometer; for mass density: Vibrating tube method

OCCN(CCO)CCO [triethanolamine] + NCCO
Settings	mass density [kg/m3]	speed of sound [m/s]
298.15 K, x2 = 0	1120.82	1610.5
298.15 K, x2 = 0.1159	1116.38	1625.2
298.15 K, x2 = 0.2165	1111.37	1637.8
298.15 K, x2 = 0.3017	1106.52	1648.4
298.15 K, x2 = 0.3788	1101.52	1658.1
298.15 K, x2 = 0.4492	1096.35	1666.8
298.15 K, x2 = 0.5121	1091.14	1674.3
298.15 K, x2 = 0.6192	1080.56	1686.4
298.15 K, x2 = 0.7099	1069.5	1695.9
298.15 K, x2 = 0.7849	1058.49	1702.7
298.15 K, x2 = 0.8509	1046.99	1708
298.15 K, x2 = 0.907	1035.53	1712.1
298.15 K, x2 = 0.9561	1023.91	1715.6
303.15 K, x2 = 0	1118.06	1600.5
303.15 K, x2 = 0.1159	1113.44	1615.2
303.15 K, x2 = 0.2165	1108.35	1628
303.15 K, x2 = 0.3017	1103.4	1638.7
303.15 K, x2 = 0.3788	1098.32	1648.3
303.15 K, x2 = 0.4492	1093.05	1656.7
303.15 K, x2 = 0.5121	1087.76	1663.9
303.15 K, x2 = 0.6192	1077.07	1675.3
303.15 K, x2 = 0.7099	1065.88	1683.4
303.15 K, x2 = 0.7849	1054.74	1689.1
303.15 K, x2 = 0.8509	1043.15	1693.5
303.15 K, x2 = 0.907	1031.61	1697.1
303.15 K, x2 = 0.9561	1019.93	1700.3
308.15 K, x2 = 0	1115.26	1595.5
308.15 K, x2 = 0.1159	1110.42	1610
308.15 K, x2 = 0.2165	1105.26	1622.1
308.15 K, x2 = 0.3017	1100.25	1632
308.15 K, x2 = 0.3788	1095.08	1640.8
308.15 K, x2 = 0.4492	1089.75	1648.6
308.15 K, x2 = 0.5121	1084.39	1655.1
308.15 K, x2 = 0.6192	1073.56	1665
308.15 K, x2 = 0.7099	1062.26	1671.8
308.15 K, x2 = 0.7849	1051.01	1676.7
308.15 K, x2 = 0.8509	1039.31	1680.6
308.15 K, x2 = 0.907	1027.72	1683.5
308.15 K, x2 = 0.9561	1015.99	1685.9
313.15 K, x2 = 0	1112.4	1587
313.15 K, x2 = 0.1159	1107.47	1601.8
313.15 K, x2 = 0.2165	1102.16	1613.9
313.15 K, x2 = 0.3017	1097.05	1623.6
313.15 K, x2 = 0.3788	1091.8	1631.9
313.15 K, x2 = 0.4492	1086.4	1639.2
313.15 K, x2 = 0.5121	1080.99	1645.2
313.15 K, x2 = 0.6192	1070.01	1654.6
313.15 K, x2 = 0.7099	1058.62	1661.1
313.15 K, x2 = 0.7849	1047.27	1665.1
313.15 K, x2 = 0.8509	1035.49	1667.6
313.15 K, x2 = 0.907	1023.83	1669
313.15 K, x2 = 0.9561	1012.03	1670
318.15 K, x2 = 0	1109.6	1578.8
318.15 K, x2 = 0.1159	1104.53	1593.8
318.15 K, x2 = 0.2165	1099.15	1605.9
318.15 K, x2 = 0.3017	1093.95	1614.8
318.15 K, x2 = 0.3788	1088.58	1622.6
318.15 K, x2 = 0.4492	1083.06	1629.4
318.15 K, x2 = 0.5121	1077.57	1635.1
318.15 K, x2 = 0.6192	1066.47	1643.9
318.15 K, x2 = 0.7099	1054.94	1649.5
318.15 K, x2 = 0.7849	1043.54	1652.8
318.15 K, x2 = 0.8509	1031.7	1654.6
318.15 K, x2 = 0.907	1019.92	1655.3
318.15 K, x2 = 0.9561	1008.07	1655.3
323.15 K, x2 = 0	1106.78	1570.6
323.15 K, x2 = 0.1159	1101.56	1585.9
323.15 K, x2 = 0.2165	1096.03	1597.2
323.15 K, x2 = 0.3017	1090.73	1605.9
323.15 K, x2 = 0.3788	1085.31	1613.5
323.15 K, x2 = 0.4492	1079.76	1620.1
323.15 K, x2 = 0.5121	1074.18	1625.6
323.15 K, x2 = 0.6192	1062.92	1633.2
323.15 K, x2 = 0.7099	1051.26	1637.5
323.15 K, x2 = 0.7849	1039.74	1639.8
323.15 K, x2 = 0.8509	1027.82	1641.3
323.15 K, x2 = 0.907	1016	1641.8
323.15 K, x2 = 0.9561	1004.09	1641
